Data from patent US20260125421A1, “ANTIVIRAL COMPOUNDS” (Hoffmann-La Roche Inc., priority 2022, published 2026).

What was measured:
Experiment in all cases: biochemical
SARS-CoV-2 3CL^pro = molecular target: T1, SARS-CoV-2 3CL^pro (Severe acute respiratory syndrome coronavirus 2, UniProt P0DTD1)
T1 construct: […]; made in house; host or cells: Escherichia coli

HCoV-229E 3CL^pro = molecular target: T2, HCoV-229E 3CL^pro (Human coronavirus 229E, UniProt P0C6X1)
T2 construct: […]; made in house; host or cells: E. coli BL21 (DE3)

MERS-CoV 3CL^pro = MERS-CoV 3CL^pro (Middle East respiratory syndrome-related coronavirus, UniProt K9N7C7)
SARS-CoV 3CL^pro = SARS-CoV 3CL^pro (Severe acute respiratory syndrome coronavirus, UniProt P0C6X7)

Chain of MERS-CoV 3CL^pro (K9N7C7 3248-3553): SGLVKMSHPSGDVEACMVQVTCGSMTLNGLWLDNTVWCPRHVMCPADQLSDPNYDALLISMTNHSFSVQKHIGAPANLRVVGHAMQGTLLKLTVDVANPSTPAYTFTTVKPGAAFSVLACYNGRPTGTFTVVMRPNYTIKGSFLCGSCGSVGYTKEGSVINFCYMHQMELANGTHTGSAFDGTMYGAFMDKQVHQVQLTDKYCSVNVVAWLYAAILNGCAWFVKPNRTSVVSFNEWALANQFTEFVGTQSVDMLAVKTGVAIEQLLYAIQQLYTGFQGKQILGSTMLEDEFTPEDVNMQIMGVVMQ
T2 sequence (P0C6X1 2966-3267): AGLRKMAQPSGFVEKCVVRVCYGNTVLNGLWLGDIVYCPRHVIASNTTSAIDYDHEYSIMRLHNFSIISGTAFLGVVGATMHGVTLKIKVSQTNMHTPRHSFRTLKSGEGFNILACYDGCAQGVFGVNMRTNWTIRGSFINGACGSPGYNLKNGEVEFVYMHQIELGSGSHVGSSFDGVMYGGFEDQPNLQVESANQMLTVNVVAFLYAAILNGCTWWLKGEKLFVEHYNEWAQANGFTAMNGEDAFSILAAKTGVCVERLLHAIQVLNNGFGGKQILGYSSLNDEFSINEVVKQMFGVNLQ

Structure (SMILES)	IC50 (SARS-CoV-2 3CL^pro) [µM]	IC50 (HCoV-229E 3CL^pro) [µM]	IC50 (MERS-CoV 3CL^pro) [µM]	IC50 (SARS-CoV 3CL^pro) [µM]
C[C@@H]1C[C@@H](CN(NC(=O)[C@@H]2[C@H]3CCC[C@H]3CN2C(=O)[C@@H](NC(=O)[C@@H]2CC2(F)F)C(C)(C)C)C(=O)[C@@H](F)Cl)C(=O)N1 [Example 30, (1S)-N-[(1S)-1-[(3S,3aS,6aR)-3-[[[(2S)-2-chloro-2-fluoro-acetyl]-[[(3S,5R)-5-methyl-2-oxo-pyrrolidin-3-yl]methyl]amino]carbamoyl]-3,3a,4,5,6,6a-hexahydro-1H-cyclopenta[c]pyrrole-2-carbonyl]-2,2-dimethyl-propyl]-2,2-difluoro-cyclopropanecarboxamide]	0.008	0.066	0.091	0.011
CC1(C)C[C@@H](CN(NC(=O)[C@@H]2[C@H]3CCC[C@H]3CN2C(=O)[C@@H](NC(=O)[C@@H]2CC2(F)F)C(C)(C)C)C(=O)[C@H](F)Cl)C(=O)N1 [Example 4, (1S)-N-[(1S)-1-[(3S,3aS,6aR)-3-[[[(2R)-2-chloro-2-fluoro-acetyl]-[[(3S)-5,5-dimethyl-2-oxo-pyrrolidin-3-yl]methyl]amino]carbamoyl]-3,3a,4,5,6,6a-hexahydro-1H-cyclopenta[c]pyrrole-2-carbonyl]-2,2-dimethyl-propyl]-2,2-difluoro-cyclopropanecarboxamide]	0.011	0.838	0.518	0.015
CC1(C)C[C@@H](CN(NC(=O)[C@@H]2[C@H]3CCC[C@H]3CN2C(=O)[C@@H](NC(=O)[C@@H]2CC2(F)F)C(C)(C)C)C(=O)[C@@H](F)Cl)C(=O)N1 [Example 2a, (1S)—N-[(1S)-1-[(3S,3aS,6aR)-3-[[[(2S)-2-chloro-2-fluoro-acetyl]-[[(3S)-5,5-dimethyl-2-oxo-pyrrolidin-3-yl]methyl]amino]carbamoyl]-3,3a,4,5,6,6a-hexahydro-1H-cyclopenta[c]pyrrole-2-carbonyl]-2,2-dimethyl-propyl]-2,2-difluoro-cyclopropanecarboxamide]	0.029	7.85	2.91	0.064
C[C@@H]1C[C@@H](CN(NC(=O)[C@@H]2[C@@H]3[C@H](CN2C(=O)[C@@H](NC(=O)[C@@H]2CC2(F)F)C(C)(C)C)C3(C)C)C(=O)[C@@H](F)Cl)C(=O)N1 [Example 34, (1S)-N-[(1S)-1-[(1R,2S,5S)-2-[[[(2S)-2-chloro-2-fluoro-acetyl]-[[(3S,5R)-5-methyl-2-oxo-pyrrolidin-3-yl]methyl]amino]carbamoyl]-6,6-dimethyl-3-azabicyclo[3.1.0]hexane-3-carbonyl]-2,2-dimethyl-propyl]-2,2-difluoro-cyclopropanecarboxamide]	0.008	0.037	0.08	0.014
C[C@@H]1C[C@H](CN(NC(=O)[C@@H]2[C@@H]3[C@H](CN2C(=O)[C@@H](NC(=O)[C@@H]2CC2(F)F)C(C)(C)C)C3(C)C)C(=O)[C@@H](F)Cl)C(=O)N1 [Example 32, (1S)-N-[(1S)-1-[(1R,2S,5S)-2-[[[(2S)-2-chloro-2-fluoro-acetyl]-[[(3R,5R)-5-methyl-2-oxo-pyrrolidin-3-yl]methyl]amino]carbamoyl]-6,6-dimethyl-3-azabicyclo[3.1.0]hexane-3-carbonyl]-2,2-dimethyl-propyl]-2,2-difluoro-cyclopropanecarboxamide]	0.065	0.07	0.2	0.116
CCC(CC)[C@H](NC(=O)[C@H](F)Cl)C(=O)N1C[C@@H]2CCC[C@@H]2[C@H]1C(=O)NN(C[C@@H]1CC(C)(C)NC1=O)C(=O)[C@H](F)Cl [Example 9, (2R)-N-[(1S)-1-[(3S,3aS,6aR)-3-[[[(2R)-2-chloro-2-fluoro-acetyl]-[[(3S)-5,5-dimethyl-2-oxo-pyrrolidin-3-yl]methyl]amino]carbamoyl]-3,3a,4,5,6,6a-hexahydro-1H-cyclopenta[c]pyrrole-2-carbonyl]-2-ethyl-butyl]-2-chloro-2-fluoro-acetamide]	0.007	0.241	0.25	0.007
CC1(C)C[C@@H](CN(NC(=O)[C@@H]2[C@H]3CCC[C@H]3CN2C(=O)[C@@H](NC(=O)[C@H](F)Cl)C(C)(C)C)C(=O)[C@@H](F)Cl)C(=O)N1 [Example 16]	0.022	> 10	6.16	0.033
CC1(C)C[C@@H](CN(NC(=O)[C@@H]2[C@@H]3[C@H](CN2C(=O)[C@@H](NC(=O)[C@@H](F)Cl)C(C)(C)C)C3(C)C)C(=O)[C@@H](F)Cl)C(=O)N1 [Example 22, (2S)-2-chloro-N-[(1S)-1-[(1R,2S,5S)-2-[[[(2S)-2-chloro-2-fluoro-acetyl]-[[(3S)-5,5-dimethyl-2-oxo-pyrrolidin-3-yl]methyl]amino]carbamoyl]-6,6-dimethyl-3-azabicyclo[3.1.0]hexane-3-carbonyl]-2,2-dimethyl-propyl]-2-fluoro-acetamide]	0.031	3.52	1.87	0.048
CC1(C)C[C@@H](CN(NC(=O)[C@@H]2[C@@H]3[C@H](CN2C(=O)[C@@H](NC(=O)[C@@H]2CC2(F)F)C(C)(C)C)C3(C)C)C(=O)[C@@H](F)Cl)C(=O)N1 [Example 23, (1S)-N-[(1S)-1-[(1R,2S,5S)-2-[[[(2S)-2-chloro-2-fluoro-acetyl]-[[(3S)-5,5-dimethyl-2-oxo-pyrrolidin-3-yl]methyl]amino]carbamoyl]-6,6-dimethyl-3-azabicyclo[3.1.0]hexane-3-carbonyl]-2,2-dimethyl-propyl]-2,2-difluoro-cyclopropanecarboxamide]	0.054	5.43	2.08	0.085
CC(C)(C)[C@H](NC(=O)[C@@H]1CC1(F)F)C(=O)N1C[C@@H]2CCC[C@@H]2[C@H]1C(=O)NN(C[C@@H]1C(=O)N[C@@H]2C[C@H]12)C(=O)[C@H](F)Cl [Example 38, (1S)-N-[(1S)-1-[(3S,3aS,6aR)-3-[[[(2R)-2-chloro-2-fluoro-acetyl]-[[(1R,4R,5R)-3-oxo-2-azabicyclo[3.1.0]hexan-4-yl]methyl]amino]carbamoyl]-3,3a,4,5,6,6a-hexahydro-1H-cyclopenta[c]pyrrole-2-carbonyl]-2,2-dimethyl-propyl]-2,2-difluoro-cyclopropanecarboxamide]	0.027	0.134	0.398	0.054
CCC(CC)[C@H](NC(=O)[C@@H](F)Cl)C(=O)N1C[C@@H]2CCC[C@@H]2[C@H]1C(=O)NN(C[C@@H]1CC(C)(C)NC1=O)C(=O)[C@@H](F)Cl [Example 13, (2S)-N-[(1S)-1-[(3S,3aS,6aR)-3-[[[(2S)-2-chloro-2-fluoro-acetyl]-[[(3S)-5,5-dimethyl-2-oxo-pyrrolidin-3-yl]methyl]amino]carbamoyl]-3,3a,4,5,6,6a-hexahydro-1H-cyclopenta[c]pyrrole-2-carbonyl]-2-ethyl-butyl]-2-chloro-2-fluoro-acetamide]	0.009	0.401	0.263	0.011
